Test results published in ChEMBL document CHEMBL1212812, “Multi-target spectral moment QSAR versus ANN for antiparasitic drugs against different parasite species” (Bioorg Med Chem, 2010).

What was measured:
Type in all cases: functional, organism-based
Plasmodium falciparum = assay: Antimicrobial activity against Plasmodium falciparum
Entamoeba histolytica = assay: Antimicrobial activity against Entamoeba histolytica
Leishmania infantum = assay: Antimicrobial activity against Leishmania infantum

| IC50 (Plasmodium falciparum) | IC50 (Entamoeba histolytica) | IC50 (Leishmania infantum) | Compound |
| --- | --- | --- | --- |
| 200 µM | 44 µM |  | O=P(O)(O)C(Nc1ccc(Br)cn1)P(=O)(O)O |
| 46 µM | 132 µM |  | CCCCCc1ccc(NC(P(=O)(O)O)P(=O)(O)O)cc1 |
| 200 µM | 200 µM |  | C=P(O)(O)C(Nc1c(F)c(F)c(F)c(F)c1F)P(=O)(O)O (stereo not drawn) |
| 197 µM | 96 µM |  | O=P(O)(O)C(Nc1ccc(O)cn1)P(=O)(O)O |
|  |  | 1 µM | COc1ccc2nc3ccc(N(CCCCCCCN(c4ccc5nc6ccc(OC)cc6c(Cl)c5c4)c4ccc5nc6ccc(OC)cc6c(Cl)c5c4)c4ccc5nc6ccc(OC)cc6c(Cl)c5c4)cc3c(Cl)c2c1 |
|  |  | 2 µM | COc1ccc2nc3ccc(N(CCCCCN(c4ccc5nc6ccc(OC)cc6c(N)c5c4)c4ccc5nc6ccc(OC)cc6c(N)c5c4)c4ccc5nc6ccc(OC)cc6c(N)c5c4)cc3c(N)c2c1 |
|  |  | 2 µM | COc1ccc2nc3ccc(N(CCCCCN(c4ccc5nc6ccc(OC)cc6c(Cl)c5c4)c4ccc5nc6ccc(OC)cc6c(Cl)c5c4)c4ccc5nc6ccc(OC)cc6c(Cl)c5c4)cc3c(Cl)c2c1 |
|  |  | 139 µM | COc1ccc2nc3ccc(N(CCCCCCCN(c4ccc5nc6ccc(OC)cc6c(N)c5c4)c4ccc5nc6ccc(OC)cc6c(N)c5c4)c4ccc5nc6ccc(OC)cc6c(N)c5c4)cc3c(N)c2c1 |
| 23 µM | 45 µM |  | CN(CCCc1ccccc1)CCCC(O)(P(=O)(O)O)P(=O)(O)O |
| 200 µM | 21 µM |  | O=P(O)(O)C(O)(CCCCNCCCCc1ccccc1)P(=O)(O)O |
| 3 µM | 23 µM |  | CN(CCCCc1ccccc1)CCCCC(O)(P(=O)(O)O)P(=O)(O)O |
| 103 µM | 65 µM |  | CCCCCC(C)CNC(P(=O)(O)O)P(=O)(O)O (stereo not drawn) |
|  |  | 1 µM | COc1ccc2nc3ccc(C)cc3c(N)c2c1 |
|  |  | 4 µM | COc1ccc2nc3ccc(CBr)cc3c(N)c2c1 |
|  |  | 6 µM | COc1ccc2nc3ccc(CBr)cc3c(Cl)c2c1 |
|  |  | 10 µM | COc1ccc2nc3ccc(C)cc3c(Cl)c2c1 |
|  |  | 10 µM | COc1ccc2nc3ccc(NCCCCNc4ccc5nc6ccc(OC)cc6c(Cl)c5c4)cc3c(Cl)c2c1 |
|  |  | 3 µM | COc1ccc2nc3ccc(NCCCCCCNc4ccc5nc6ccc(OC)cc6c(Cl)c5c4)cc3c(Cl)c2c1 |
|  |  | 68 µM | COc1ccc2nc3ccc(N(CCCCCCN(c4ccc5nc6ccc(OC)cc6c(Cl)c5c4)c4ccc5nc6ccc(OC)cc6c(Cl)c5c4)c4ccc5nc6ccc(OC)cc6c(Cl)c5c4)cc3c(Cl)c2c1 |
| 200 µM | 29 µM |  | O=P(O)(O)C(Nc1ncc(Br)cc1Br)P(=O)(O)O |

| IC50 (Plasmodium falciparum) | IC50 (Entamoeba histolytica) | IC50 (Leishmania infantum) | Compound |
| --- | --- | --- | --- |
|  | 200 µM |  | O=P(O)(O)C(Nc1nccc2ccccc12)P(=O)(O)O |
| 200 µM | 200 µM |  | O=P(O)(O)C(Nc1ccccn1)P(=O)(O)O |
| 5 µM | 200 µM |  | Cc1csc(NC(P(=O)(O)O)P(=O)(O)O)n1 |
|  | 9 µM |  | O=P(O)(O)C(Nc1ccc(-c2ccccc2)cc1)P(=O)(O)O |
| 200 µM | 200 µM |  | O=P(O)(O)C(O)(CCc1cccnc1)P(=O)(O)O |
| 200 µM | 200 µM |  | O=P(O)(O)C(CNc1ccncc1)P(=O)(O)O |
|  | 200 µM |  | O=P(O)(O)C(CNc1ccccn1)P(=O)(O)O |
| 200 µM | 200 µM |  | NCCCCC(O)(P(=O)(O)O)P(=O)(O)O |
| 200 µM | 200 µM |  | O=P(O)(O)C(O)(Cc1c[nH]cn1)P(=O)(O)O |
| 200 µM | 200 µM |  | CCOP(=O)(OCC)C(Nc1ncccc1C)P(=O)(OCC)OCC |
| 200 µM | 200 µM |  | O=P(O)(O)C(Nc1cccnc1Cl)P(=O)(O)O |
| 200 µM | 200 µM |  | CCOP(=O)(OCC)C(Nc1cc(C)ccn1)P(=O)(OCC)OCC |
| 200 µM | 200 µM |  | O=P(O)(O)CC(c1cccnc1)P(=O)(O)O (stereo not drawn) |
| 200 µM | 200 µM |  | Nc1ccc(CC(O)(P(=O)(O)O)P(=O)(O)O)cc1 |
|  | 200 µM |  | CCn1c2ccccc2c2ccc(NC(P(=O)(O)O)P(=O)(O)O)cc21 |
|  | 200 µM |  | O=P(O)(O)C(O)(Cc1ccccn1)P(=O)(O)O |
| 200 µM | 200 µM |  | O=P(O)(O)C(N1CCCCC1)P(=O)(O)O |
| 200 µM | 200 µM |  | O=C(O)c1cn(C2CC2)c2cc(N3CCN(CC(P(=O)(O)O)P(=O)(O)O)CC3)c(F)cc2c1=O |
| 200 µM | 200 µM |  | O=P(O)(O)C(Nc1ncccc1OCc1ccccc1)P(=O)(O)O |
|  | 6 µM |  | CN(CCOc1ccccc1)CCC(O)(P(=O)(O)O)P(=O)(O)O |

| IC50 (Plasmodium falciparum) | IC50 (Entamoeba histolytica) | IC50 (Leishmania infantum) | Compound |
| --- | --- | --- | --- |
| 200 µM | 200 µM |  | O=P(O)(O)CC(c1ccncc1)P(=O)(O)O (stereo not drawn) |
| 200 µM | 200 µM |  | O=P(O)(O)CC(c1ccccn1)P(=O)(O)O (stereo not drawn) |
| 103 µM | 36 µM |  | CCCCCCc1ccc(NC(P(=O)(O)O)P(=O)(O)O)cc1 |
| 200 µM | 200 µM |  | CCc1cccc(NC(P(=O)(O)O)P(=O)(O)O)c1 |
| 200 µM | 200 µM |  | Cc1cccnc1NC(P(=O)(O)O)P(=O)(O)O |
|  | 200 µM |  | O=P(O)(O)C(O)(CSc1ccncc1)P(=O)(O)O |
| 200 µM | 7 µM |  | O=P(O)(O)C(Nc1cccc(-c2ccccc2)c1)P(=O)(O)O |
| 200 µM | 200 µM |  | Cc1ccnc(NC(P(=O)(O)O)P(=O)(O)O)c1 |
| 200 µM | 200 µM |  | CCCCCCCCCCCCCCCCCC(O)(P(=O)(O)O)P(=O)(O)O |
| 200 µM | 200 µM |  | O=P(O)(O)C(O)(Cc1ccncc1)P(=O)(O)O |
| 200 µM | 200 µM |  | O=P(O)(O)C(Nc1ccc2c(c1)CCC2)P(=O)(O)O |
| 8 µM | 200 µM |  | O=P(O)(O)C(O)(Cc1ccccc1)P(=O)(O)O |
| 200 µM | 200 µM |  | O=P(O)(O)C(N1CCC(O)CC1)P(=O)(O)O |
| 200 µM | 200 µM |  | O=P(O)(O)C(N(C1CCCCC1)C1CCCCC1)P(=O)(O)O [(DICYCLOHEXYLAMINO)METHYLENEDIPHOSPHONIC ACID] |
| 200 µM | 200 µM |  | CCCN(CCC)C(P(=O)(O)O)P(=O)(O)O [(DIPROPYLAMINO)METHYLENEDIPHOSPHONIC ACID] |
|  | 200 µM |  | CCCCCCNC(P(=O)(O)O)P(=O)(O)O [(HEXYLAMINO)METHYLENEDIPHOSPHONIC ACID] |
| 5 µM | 200 µM |  | CCCCCNC(P(=O)(O)O)P(=O)(O)O [(PENTYLAMINO)METHYLENEDIPHOSPHONIC ACID] |
|  | 200 µM |  | O=P(O)(O)C(N1CCOCC1)P(=O)(O)O [MORPHOLINOMETHYLENEDIPHOSPHONIC ACID] |

| Compound | IC50 (Plasmodium falciparum) | IC50 (Entamoeba histolytica) | IC50 (Leishmania infantum) |
| --- | --- | --- | --- |
| CCCCC(O)(P(=O)(O)O)P(=O)(O)O |  | 200 µM |  |
| CCCC(O)(P(=O)(O)O)P(=O)(O)O |  | 200 µM |  |
| CC(N)CC(O)(P(=O)(O)O)P(=O)(O)O (stereo not drawn) | 200 µM | 200 µM |  |
| O=P(O)(O)C(Nc1cc(Cl)cc(Cl)c1)P(=O)(O)O [(3,5-DICHLOROPHENYLAMINO)METHYLENEDIPHOSPHONIC ACID] | 200 µM | 200 µM |  |
| CCCCNC(P(=O)(O)O)P(=O)(O)O [(BUTYLAMINO)METHYLENEDIPHOSPHONIC ACID] | 200 µM | 200 µM |  |
| O=P(O)(O)C(NC1CCC1)P(=O)(O)O [(CYCLOBUTYLAMINO)METHYLENEDIPHOSPHONIC ACID] | 200 µM | 200 µM |  |
| CC(C)CNC(P(=O)(O)O)P(=O)(O)O [(ISOBUTYLAMINO)METHYLENEDIPHOSPHONIC ACID] | 200 µM | 200 µM |  |
